{"source": "patent US20140194374A1", "about": "“Anthelmintic Formulations and Treatments” (VIRBAC, priority 2011, published 2014)", "test_system": "ML resistant Cooperia strains", "conditions": "doses ¼ to ⅓rd lower than the standard label dose (7.5 mg/kg)", "protocol": "Individual faecal samples (for individual egg count and group larval culture) were collected as per protocol at 7 days intervals at Days 7, 14, 21, 28, 35, 42 and 49. […] Weighing was performed at the beginning, middle, and end of 49 day trial."}
{"compound": "c1ccc([C@H]2CN3CCSC3=N2)cc1", "note": "[levamisole]", "values": [{"measurement": "Control of ML resistant Cooperia strains", "result": 100, "unit": "%"}]}
